Results reported in patent US20180296561A1, “The Methods For Treatment Of Tumors” (The University of North Carolina at Chapel Hill, priority 2015, published 2018).

How the values were obtained:
[1] = test system: monocytes and macrophages that expressed MerTK; details: addition of UNC569; cited from earlier work
melanoma cells = details: cited from earlier work
melanoma = melanoma mouse model, therapeutic doses; cited from earlier work
[2] = test system: non-small cell lung cancer (NSCLC) and acute myeloid leukemia (AML) tumor cell lines; details: cited from earlier work
B16 melanoma = B16 melanoma mouse model with radiation therapy (XRT), secondary tumor; format: in vivo
Protocol: MerTK ihibitors were analyzed in combination with immune checkpoint inhibitors in a B16 melanoma mouse model for their effect on secondary tumor growth in mice treated with radiation therapy (XRT). XRT is performed according to the following schematic:
Briefly, XRT (8 Gy) was given on days 9, 10, and 11. UNC2371 was given at a dose of 50 mg/kg, by oral gavage, qd, initiated at Day 8. Anti-PD1 was given at 200 μg IP on days 6, 9, and 12. Eight mice were analyzed in each treatment arm (XRT, MerTKi, anti-PD1, anti-PD1+MerTKi, XRT+MerTKi, XRT+anti-PD1, and XRT+anti-PD1+MerTKi). Tumors were implanted on both flanks, and the secondary tumor was shielded during XRT treatment. The secondary tumor was assessed for impact of abscopal effect.

[3] = test system: Colon26 murine colon carcinoma; experiment: Flow cytometry of immune cells in tumor and PBMCs, Colon26 model, Day 8; format: in vivo, mouse
Protocol: Tumor samples and blood samples were analyzed by flow cytometry to determine the effect of a MerTK inhibitor on immune cells alone or in combination with an immune checkpoint inhibitor in the Colon26 murine colon carcinoma mouse model. In the following example, the MerTK inhibitor UNC2371 was examined in combination with the immune checkpoint inhibitors anti-CTLA4 and anti-PD1. Experiments were performed as described in Example 3 above, except that mice in each group were euthanized at Day 8, and tumor tissue and blood samples were collected. Blood samples were collected by terminal cardiac puncture under isoflurane anesthesia. Blood was processed for peripheral blood monocyte cells (PBMCs; enriches the white cell population). Flow cytometry was conducted to identify specific white cell populations in both the PBMCs as well as the tumor cells. Tumor samples were preserved (single cell suspension) and maintained at −4° C.

[4] = test system: Colon26 murine colon carcinoma; experiment: Immunohistochemistry of Colon26 tumors (CD3, F4/80, survivin); format: in vivo, mouse
Protocol: Tumors from 2 to 3 mice per treatment group were formalin fixed and paraffin embedded. The samples were analyzed by immunohistochemistry for several biological markers (data not shown). T cells (cell marker=CD3) were increased in the 1 mg/kg UNC2371 (low dose) monotherapy arm and 1 mg/kg UNC2371/anti-CTLA4 combination treatment arm compared to vehicle. […] Macrophages (cell marker F4/80) were highest in group 6 (anti-CTLA4) and group 10 (UNC2371 1 mg/kg+anti-CTLA4) with similar staining seen in these two groups. […] Tumors were also analyzed for survivin staining.

Colon26 tumor cells = experiment: Colon26 syngeneic colon carcinoma model: tumor volume, time to endpoint, survival; format: in vivo, Female BALB/c mice; details: for median time to endpoint (TTE): endpoint 1000 mm^3 or 45 days; for tumor growth delay (TGD) / tumor growth delay (TGD), percent / mice remaining through day 15: alone or with the antibody in the label; for mice remaining through day 15: n=9
Protocol: Female BALB/c mice were injected with 5×10^5 Colon26 tumor cells in 0% Matrigel sc in flank. The cell injection volume was 0.1 mL/mouse. Mice were between 7 to 10 weeks at the start of the experiment. When tumors reached an average size of 80-120 mm^3, treatment was begun. Body weight was measured five times per week for the first two weeks and then twice per week to the end of the experiment. Tumor volume was measured by caliper measurement twice per week to the end of the experiment. […] Any group with a mean body weight loss of greater than 20% or greater than 10% mortality was stopped dosing. The group was not euthanized and recovery was allowed. Within a group with greater than 20% weight loss, individuals hitting the individual body weight loss endpoint were euthanized. The endpoint of the experiment was a tumor volume of 1000 mm^3 or 45 days, whichever endpoint came first. When the endpoint was reached, the mice were euthanized.
UNC2371 was prepared in salt form and the dosing solution was prepared every day. UNC2371 was prepared in deionized water. All doses represent total substance dosed by weight of compound (including salt weight). […] Dosing solution was prepared at 5 mL/kg (0.100 mL/20 g mouse) and volume was adjusted accordingly for body weight. Dosing solutions of anti-CTLA4 9H10 (BioXcell cat# BE0131) and anti-PD1 RMP1-14 (rat Ig—BioXcell cat# BE0146) were prepared in PBS every week, stored at 4° C., and protected from light. Dosing solution was prepared at 10 mL/kg (0.200 mL/20 g mouse) and volume was adjusted accordingly for body weight.
Mice were randomized into twelve different experimental groups. Group 1 received deionized water via oral gavage (p.o.) three times daily for twenty-one days, starting with two doses on Day 1 (tid×21 first day two doses) and PBS i.p. twice weekly for two weeks (biwk×2). Groups 2-4 received UNC2371 via oral gavage (p.o.) three times daily for twenty-one days, starting with two doses on Day 1 (tid×21 first day two doses). Dosing amounts for UNC2371 for Groups 2-4 were 1, 5 and 15 mg/kg, respectively. Group 5 received anti-PD1 mAb at a dosage of 5 mg/kg i.p. biwk×2. Group 6 received anti-CTLA4 mAb at a dosage of 5 mg/kg on Day 1 and at 2.5 mg/kg on Days 4 and 7. Groups 7-9 received UNC2371 (p.o. tid×21, first day two doses) at 1, 5 and 15 mg/kg, respectively, in combination with anti-PD1 (5 mg/kg i.p. biwk×2). Groups 10-12 received UNC2371 (p.o. tid×21, first day two doses) at 1, 5 and 15 mg/kg, respectively, in combination with anti-CTLA4 (5 mg/kg on Day 1 and at 2.5 mg/kg on Days 4 and 7).

[5] = test system: myeloid-derived suppressor cells (MDSCs); experiment: mRNA expression in myeloid-derived suppressor cells from B16/F10 tumor-bearing mice; format: in vivo, mouse
Protocol: To evaluate the effect of MerTK inhibitors on myeloid-derived suppressor cells (MDSCs), C57BL/6 B16/F10 melanoma cells were implanted into syngeneic mice and tumors are allowed to form. Once tumors reached 5 mm in diameter, mice received either vehicle (0.9% NaCl) or 10, 25 or 50 mg/kg UNC2371 for 5 days. Initial experiments determined the lowest dose capable of altering the immune system. Myeloid-derived suppressor cells (MDSCs) were isolated from the spleens of tumor-bearing mice by fluorescence activated cell sorting using the cell surface markers CD11b^+Ly6G^−Ly6C^high and G-MDSCs by CD11b^+Ly6G^highLy6C^low. MDSCs' suppressive capabilities were assessed by the level of RNA for M2 capabilities.

AML = details: cited from earlier work

SMILES: CCCCNc1ncc2c(-c3ccc(F)cc3)nn(CC3CCC(N)CC3)c2n1 (stereo not drawn) [UNC569]
- production of inflammatory cytokines [1]: restored

SMILES: CCCCNc1ncc2c(-c3ccc(S(=O)(=O)N4CCOCC4)cc3)nn(C3CCC(O)CC3)c2n1 (stereo not drawn) [UNC1062]
- activation of MERTK-mediated downstream signaling (melanoma cells): reduced
- apoptosis in culture (melanoma cells): induced
- colony formation in soft agar (melanoma cells): reduced
- invasion of melanoma cells (melanoma cells): inhibited

SMILES: CCCCNc1ncc2c(-c3ccc(CN4CCN(C)CC4)cc3)cn(C3CCC(O)CC3)c2n1 (stereo not drawn) [UNC2025A]
- survival (melanoma): survival advantage
- colony formation [2]: can inhibit colony formation

SMILES: CN1CCN(Cc2ccc(-c3cn(C4CCC(O)CC4)c4nc(NCCC5CC5)ncc34)cc2)CC1 (stereo not drawn) [UNC2371]
- secondary tumor volume compared with XRT alone (B16 melanoma; UNC2371 50 mg/kg oral gavage qd from Day 8, anti-PD1 200 μg IP days 6, 9, 12, FIG. 22A): more effective than XRT alone
- tumor derived myeloid-derived suppressor cells (MDSCs) (B16 melanoma; XRT+UNC2371 vs XRT, FIG. 22C): decrease
- abscopal effect on the secondary tumor (B16 melanoma; with XRT 8 Gy days 9, 10, 11, UNC2371 50 mg/kg qd, anti-PD1 200 μg IP, FIG. 22B): enhanced the abscopal effect
- CD8+ cells in the tumor ([3]; Day 8, FIG. 19, combination: low dose or medium dose UNC2371): increase
- Natural Killer (NK) cells in the tumor ([3]; Day 8, FIG. 20): increase
- T cell (CD3 marker) penetration into the core of the tumor [4]: notable increase
- T cells (cell marker CD3) in tumor compared to vehicle ([4]; 1 mg/kg UNC2371 (low dose)): increased
- survivin staining ([4]; low dose 1 mg/kg UNC2371): markedly decreased staining
- single agent efficacy (Colon26 tumor cells; anti-CTLA4, anti-PD1 and low dose UNC2371 as single agents, FIGS. 16 to 18): failed to demonstrate single agent efficacy
- median time to endpoint (TTE) (Colon26 tumor cells; high dose UNC2371 15 mg/kg TID p.o. x21, alone or with the antibody in the label): 20.7 days
- tumor growth delay (TGD) (Colon26 tumor cells; high dose UNC2371 15 mg/kg TID): 6.9 days
- tumor growth delay (TGD), percent (Colon26 tumor cells; high dose UNC2371 15 mg/kg TID): 50%
- mice remaining through day 15 (Colon26 tumor cells; high dose UNC2371 15 mg/kg TID): 8/9
- median time to endpoint (TTE) (Colon26 tumor cells; low dose UNC2371 1 mg/kg TID p.o. x21, alone or with the antibody in the label): 14.0 days
- tumor growth delay (TGD) (Colon26 tumor cells; low dose UNC2371 1 mg/kg TID): 0.2 days
- tumor growth delay (TGD), percent (Colon26 tumor cells; low dose UNC2371 1 mg/kg TID): 1%
- mice remaining through day 15 (Colon26 tumor cells; low dose UNC2371 1 mg/kg TID): 3/9
- median time to endpoint (TTE) (Colon26 tumor cells; mid dose UNC2371 5 mg/kg TID p.o. x21, alone or with the antibody in the label): 16.7 days
- tumor growth delay (TGD) (Colon26 tumor cells; mid dose UNC2371 5 mg/kg TID): 2.9 days
- tumor growth delay (TGD), percent (Colon26 tumor cells; mid dose UNC2371 5 mg/kg TID): 21%
- mice remaining through day 15 (Colon26 tumor cells; mid dose UNC2371 5 mg/kg TID): 6/9
- arginase mRNA expression ([5]; 25 mg/kg UNC2371 for 5 days vs vehicle control): decrease
- iNOS (inducible nitric oxide synthase) mRNA expression ([5]; 10, 25, or 50 mg/kg UNC2371 for 5 days vs vehicle control): decrease
- IDO (indoleamine 2,3-dioxygenase) mRNA expression ([5]; 10 or 25 mg/kg UNC2371 for 5 days vs vehicle control): decrease

SMILES: CCCCNc1ncc2c(-c3ccc(S(=O)(=O)N4CCOCC4)cc3)cn(C3CCC(O)CC3)c2n1 (stereo not drawn) [UNC 1666]
- myeloid survival in AML (AML): decreases
- oncogenic signaling in AML (AML): decreases
